Measurements published in patent US6596512B1 (American Cyanamid Company, priority 1997, dated 2003).

Key:
CeDAT1 [1] = target: T1, CeDAT1 (Caenorhabditis elegans, UniProt Q03614); experiment: cell-based; parameters: species or system C. elegans
T1 sequence (Q03614 20-615): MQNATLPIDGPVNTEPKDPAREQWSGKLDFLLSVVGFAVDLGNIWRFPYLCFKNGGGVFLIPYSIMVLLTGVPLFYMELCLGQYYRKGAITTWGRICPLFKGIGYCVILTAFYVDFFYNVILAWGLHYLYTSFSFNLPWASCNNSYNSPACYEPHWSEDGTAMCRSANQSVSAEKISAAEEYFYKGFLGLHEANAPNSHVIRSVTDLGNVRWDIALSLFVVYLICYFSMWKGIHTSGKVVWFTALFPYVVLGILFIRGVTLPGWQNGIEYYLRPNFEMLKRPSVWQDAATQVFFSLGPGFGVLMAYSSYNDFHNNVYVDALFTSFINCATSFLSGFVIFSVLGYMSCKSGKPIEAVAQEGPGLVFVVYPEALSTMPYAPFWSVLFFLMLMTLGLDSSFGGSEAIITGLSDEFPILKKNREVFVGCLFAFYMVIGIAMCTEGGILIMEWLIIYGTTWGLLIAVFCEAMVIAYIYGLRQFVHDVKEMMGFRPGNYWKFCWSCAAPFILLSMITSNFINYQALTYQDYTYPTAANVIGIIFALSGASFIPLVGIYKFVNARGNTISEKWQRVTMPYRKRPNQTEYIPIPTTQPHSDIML

[2] = tested on: CeDAT2 (Caenorhabditis elegans); type: cell-based, C. elegans; details: radiolabeled substrates each at 50 nm, pCeDAT2
CeDAT2 (Caenorhabditis elegans), sequence (Q03614 whole entry): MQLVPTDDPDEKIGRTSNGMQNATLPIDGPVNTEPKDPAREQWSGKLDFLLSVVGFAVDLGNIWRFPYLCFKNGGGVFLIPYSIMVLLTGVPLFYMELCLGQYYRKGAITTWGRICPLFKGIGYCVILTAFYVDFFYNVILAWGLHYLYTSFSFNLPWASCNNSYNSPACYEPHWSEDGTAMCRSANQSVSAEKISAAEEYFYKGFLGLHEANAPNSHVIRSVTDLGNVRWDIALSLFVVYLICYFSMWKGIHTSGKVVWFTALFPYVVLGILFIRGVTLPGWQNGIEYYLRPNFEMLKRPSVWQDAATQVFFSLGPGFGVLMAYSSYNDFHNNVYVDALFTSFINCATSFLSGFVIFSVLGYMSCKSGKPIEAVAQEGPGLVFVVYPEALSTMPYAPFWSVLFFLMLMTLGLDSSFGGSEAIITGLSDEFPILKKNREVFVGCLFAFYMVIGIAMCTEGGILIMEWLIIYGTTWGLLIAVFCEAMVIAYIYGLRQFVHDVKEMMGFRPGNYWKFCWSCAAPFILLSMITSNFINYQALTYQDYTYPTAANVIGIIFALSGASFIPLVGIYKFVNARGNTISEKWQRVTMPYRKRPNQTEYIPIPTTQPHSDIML

CeDAT1 [3] = target: T1, CeDAT1; type: cell-based, C. elegans; details: radiolabeled substrates each at 50 nm, pCeDAT1
CeDAT1 [4] = target: T1, CeDAT1; experiment: Saturation kinetics of catecholamine transport in pCeDAT1 transfected HeLa cells; type: cell-based, C. elegans; details: radiolabeled substrate
[5] = substrate: NC[C@H](O)c1ccc(O)c(O)c1; experiment: cells, lysate or membranes; details: 37.0 °C

Question: With NCCc1ccc(O)cc1 [Tyramine] as the molecule, how does the Ki (CeDAT1 [1]) read?
Answer: The Ki was 827 nM.

Question: Which results are given for NCCc1c[nH]c2ccc(O)cc12 [5HT, Serotonin]?
Answer: Transport of radiolabeled substrate [2]: transported only at very low levels; Transport of radiolabeled substrate (CeDAT1 [3]): little or no transport

Question: With NC[C@H](O)c1ccc(O)c(O)c1 [NE, Norepinephrine] as the molecule, how does the Vmax of transport (CeDAT1 [4]) read?
Answer: The Vmax of transport was 0.46 pmol/10^6 cells/min.

Question: With CNC[C@H](O)c1ccc(O)c(O)c1 [Epi] as the molecule, how does the “Transport of radiolabeled substrate” value [2] read?
Answer: The value was “transported only at very low levels”.

Question: And the “Transport of radiolabeled substrate” value (CeDAT1 [3])?
Answer: The value was “little or no transport”.

Question: With CNCCC(Oc1ccccc1OC)c1ccccc1 (stereo not drawn) [nisoxetine] as the molecule, how does the Ki (CeDAT1 [1]) read?
Answer: Its Ki is 3 nM.

Question: With NCCc1ccc(O)c(O)c1 [DA, Dopamine] as the molecule, how does the Ki (CeDAT1 [1]) read?
Answer: Its Ki is 146 nM.

Question: What about the “Potency as inhibitor of transport relative to L-NE” value (CeDAT1 [1]; pCeDAT1, HeLa cells, DA versus L-NE) of the same molecule?
Answer: The value was ~10 fold.

Question: And the “Extent of transport relative to NE” value (CeDAT1 [3])?
Answer: The value was ~2 fold.

Question: And the Vmax of transport (CeDAT1 [4])?
Answer: Its Vmax of transport is 0.6 pmol/10^6 cells/min.

Question: For Fc1ccc(C(OCCN2CCN(CCCc3ccccc3)CC2)c2ccc(F)cc2)cc1 [GBR12909], which Ki (CeDAT1 [1]) is on record?
Answer: The Ki was 70 nM.

Question: Which Ki (CeDAT1 [1]) does the source give for OC1(c2ccc(Cl)cc2)c2ccccc2C2=NCCN21 (stereo not drawn) [mazindol] here?
Answer: The Ki was 8 nM.

Question: Which Ki (CeDAT1 [1]) does the source give for COC(=O)[C@H]1[C@@H](OC(=O)c2ccccc2)C[C@@H]2CC[C@H]1N2C [cocaine] here?
Answer: Its Ki is 3500 nM.

B1: CeDAT1 (Caenorhabditis elegans) (protein)
chain: T1 sequence (Q03614 20-615)
Question: With B1 as the molecule, how does the Km [5] read?
Answer: The Km was 4.1 µM.
